Data on one molecule can be found in patent US20240131168A1, “NAPHTHALENE RING-CONTAINING COMPOUND, PHARMACEUTICAL COMPOSITION CONTAINING SAME, AND USE THEREOF” (JIANGSU YAHONG MEDITECH CO., LTD., priority 2021, published 2024).

Assay [1] concerns TamR-MCF-7. Briefly: CellTiter-Glo cell proliferation inhibition, TamR-MCF-7. Format: cell-based. Conditions: 144 h, TamR-MCF-7 (CTG), 6 days, starting concentration 10 μM. The method in brief: (§1)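 MCF-7, TamR-MCF-7, and CRISPR-edited MCF-7 ER D538G or Y537S cells were seeded at 1,000 or 2,000 cells/well in EMEM and cultured 24 h. They were then exposed to a 4-fold, 10-point series (top 10 µM before addition to wells) for 6 days or 72 h at 37 °C. CellTiter-Glo luminescence gave IC50 and maximum % inhibition.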
(In general: Cellular ATP, detected with luciferase, serves as a proxy for viable cell number.)

For assay [2], the system named is MCF-7. Briefly: CellTiter-Glo cell proliferation inhibition, MCF-7 (Effect Example 2). The class given is cell-based. Conditions: Homo sapiens, MCF7, 144 h, MCF-7 (CTG), 6 days, starting concentration 10 μM. The method in brief:
as §1

For assay [3], the system named is MDA-MB-468. Briefly: CellTiter-Glo cell proliferation inhibition, MDA-MB-468. The class given is cell-based. Conditions: Homo sapiens, 144 h; MDA-MB-468 (CTG), 6 days, starting concentration 10 μM; read-out: IH % max (maximum inhibition percentage).
Assay [4] deals with T1, estrogen receptor (Homo sapiens, UniProt P03372).
T1 sequence (P03372 1-595): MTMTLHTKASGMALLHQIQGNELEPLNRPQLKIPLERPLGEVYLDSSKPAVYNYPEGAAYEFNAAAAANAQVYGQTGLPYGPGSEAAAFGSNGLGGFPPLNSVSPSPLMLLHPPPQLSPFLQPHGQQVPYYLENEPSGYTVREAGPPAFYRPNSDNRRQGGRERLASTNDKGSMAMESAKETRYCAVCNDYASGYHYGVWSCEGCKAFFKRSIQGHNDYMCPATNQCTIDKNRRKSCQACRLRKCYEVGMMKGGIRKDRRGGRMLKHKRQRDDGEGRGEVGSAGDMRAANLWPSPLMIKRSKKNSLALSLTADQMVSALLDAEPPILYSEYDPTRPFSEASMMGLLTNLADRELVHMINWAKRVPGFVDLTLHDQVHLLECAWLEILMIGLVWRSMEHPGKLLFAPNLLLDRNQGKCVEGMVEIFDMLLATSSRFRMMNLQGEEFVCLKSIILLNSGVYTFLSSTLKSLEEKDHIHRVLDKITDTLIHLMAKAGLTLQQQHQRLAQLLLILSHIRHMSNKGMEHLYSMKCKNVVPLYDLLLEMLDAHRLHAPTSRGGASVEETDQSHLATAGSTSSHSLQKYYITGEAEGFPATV
Conditions: background section; cited from earlier work.

The mark [5] stands for this setting: read-out: IH % max (maximum inhibition percentage).

For the molecule `C[C@]12CC[C@@H]3c4ccc(O)cc4C[C@@H](CCCCCCCCC[S+]([O-])CCCC(F)(F)C(F)(F)F)[C@H]3[C@@H]1CC[C@@H]2O` (stereo partly drawn) [Fulvestrant, fulvestrant, reference compound], the results for the IC50 in assay [1] and in assay [2] were 115 nM and 1.6 nM, respectively. Moreover, the inhibition at up to 10 µM in assay [1] (setting [5]) amounted to 71.8%; in assay [2] (setting [5]), 80.7%; in assay [3], 39.4%. For the same molecule, the “maximum protein degradation rate” value in assay [4] was “about 61%”.

By IC50 is commonly meant the point on the concentration scale where inhibition reaches its midpoint. In general, inhibition refers to the share of the control response that was lost under treatment.
